Here are results for 18 molecules from patent publication US9278950B2, “Bicyclic aromatic carboxamide compounds useful as Pim kinase inhibitors” (Incyte Corporation, priority 2013, dated 2016).

Common to all, as to assay type: biochemical
For one test, the target named is T1, Pim-3 (Homo sapiens, UniProt Q86V86).
T1 construct: purchased Millipore 14-738
Description: Pim-3 kinase assay (Pim enzyme assays, Example A). The settings on record: 1 mM ATP; read-out: Pim3 IC50. How it is done:
(§1) Pim-1 and Pim-3 kinase assays-20 μL reactions were run in white 384 well polystyrene plates dotted with 0.8 μL compound/DMSO in the assay buffer (50 mM Tris, pH 7.5, 0.01% Tween-20, 5 mM mgCl2, 0.01% BSA, 5 mM DTT), containing 0.05 μM Biotin-labeled BAD peptide substrate (AnaSpec 62269), 1 mM ATP, and […] (Pim-1, Invitrogen PV3503) or […] (Pim-3, Millipore 14-738) enzyme for 1 h at 25° C. Reactions were stopped by addition of 10 μL STOP Buffer (150 mM Tris, pH=7.5, 150 mM NaCl, 75 mM EDTA, 0.01% Tween-20, 0.3% BSA,) supplemented with Phospho-Bad (Ser 12) Antibody (Cell Signaling 9291) diluted 666-fold, and Streptavidin donor beads (PerkinElmer 6760002) along with Protein-A acceptor beads (PerkinElmer 6760137) at 15 μg/mL each. Supplementation of the STOP buffer with beads and stopping the reactions were done under reduced light. Prior to the stopping reactions STOP buffer with beads was preincubated for 1 h in the dark at room temperature. After stopping the reactions, plates were incubated for 1 h in the dark at room temperature before reading on a PHERAstar FS plate reader (BMG Labtech) under reduced light.

The next test deals with T2, Pim2 (Homo sapiens, UniProt Q9P1W9).
T2 construct: purchased Invitrogen PV3649
Briefly: Pim-2 kinase assay (Pim enzyme assays, Example A). The settings on record: 1 mM ATP; read-out: Pim2 IC50. How it is done:
Pim-2 kinase assay—20 μL reactions were run in white 384 well polystyrene plates dotted with 0.8 μL compound/DMSO in the assay buffer (50 mM Tris, pH 7.5, 0.01% Tween-20, 5 mM mgCl2, 0.01% BSA, 5 mM DTT), containing 0.05 μM Fluorescein-labeled CREBtide peptide substrate (Invitrogen PV3508), 1 mM ATP, and 1 nM enzyme (Invitrogen PV3649) for 2 h at 25° C. Reactions were stopped by addition of 10 μL TR-FRET Dilution Buffer (Invitrogen PV3574) with 30 mM EDTA and 1.5 nM LanthaScreen Tb-CREB pSer133 antibody (Invitrogen PV3566). After 30 min. incubation at room temperature, plates were read on a PHERAstar FS plate reader (BMG Labtech).

A further test concerns the target T3, Pim-1 (Homo sapiens, UniProt P11309).
T3 construct: purchased Invitrogen PV3503
Briefly: Pim-1 kinase assay (Pim enzyme assays, Example A). The settings on record: 1 mM ATP; read-out: Pim1 IC50. How it is done: as §1

As usually defined, the IC50 is the point on the concentration scale where inhibition reaches its midpoint.

T3 sequence (P11309 whole entry): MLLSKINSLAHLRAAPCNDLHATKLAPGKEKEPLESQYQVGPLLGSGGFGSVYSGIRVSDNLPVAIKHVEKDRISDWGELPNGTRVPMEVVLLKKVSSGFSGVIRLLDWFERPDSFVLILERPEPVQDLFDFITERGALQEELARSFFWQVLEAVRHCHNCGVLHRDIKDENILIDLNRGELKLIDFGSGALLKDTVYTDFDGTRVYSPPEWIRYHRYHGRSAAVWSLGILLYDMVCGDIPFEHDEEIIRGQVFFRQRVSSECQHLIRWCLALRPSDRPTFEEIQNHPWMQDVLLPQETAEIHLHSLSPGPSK
T2 sequence (Q9P1W9 whole entry): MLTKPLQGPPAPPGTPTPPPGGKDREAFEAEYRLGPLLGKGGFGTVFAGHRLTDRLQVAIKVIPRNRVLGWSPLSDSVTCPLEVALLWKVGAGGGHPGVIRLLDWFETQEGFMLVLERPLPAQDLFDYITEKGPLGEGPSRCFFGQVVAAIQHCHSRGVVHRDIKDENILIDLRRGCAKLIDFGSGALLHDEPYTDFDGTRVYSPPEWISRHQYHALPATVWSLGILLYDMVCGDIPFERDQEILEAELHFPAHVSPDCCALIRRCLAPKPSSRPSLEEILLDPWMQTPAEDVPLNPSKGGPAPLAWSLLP

Turning to `Nc1cc2ccc(CN3CCOCC3)cc2nc1C(=O)Nc1cnccc1N1CCC[C@H](N)C1` [Example 21, 3-Amino-N-{4-[(3S)-3-aminopiperidin-1-yl]pyridin-3-yl}-7-(morpholin-4-ylmethyl)quinoline-2-carboxamide], the IC50 was not above 100 nM on Pim-3, 100 to 1000 nM on Pim2 and not above 100 nM at Pim-1.
As to `CCc1ccc2cc(N)c(C(=O)Nc3cnccc3C3CCCC(N)C3)nc2c1` (stereo not drawn) [Example 23, 3-Amino-N-[4-(3-aminocyclohexyl)pyridin-3-yl]-7-ethylquinoline-2-carboxamide], the IC50 at Pim-3 is not above 100 nM; on Pim2 it was 100 to 1000 nM; on Pim-1, not above 100 nM.
Take `CCc1ccc2cc(N)c(C(=O)Nc3cnc4c(c3N3CCC[C@H](N)C3)CCO4)nc2c1` [Example 24, (S)-3-Amino-N-(4-(3-aminopiperidin-1-yl)-2,3-dihydrofuro[2,3-b]pyridin-5-yl)-7-ethylquinoline-2-carboxamide]: the IC50 is not above 100 nM on Pim-3, 100 to 1000 nM at Pim2 and not above 100 nM on Pim-1.
As to `CCc1ccc2cc(N)c(C(=O)Nc3cncc(C)c3N3C[C@@H](N)[C@H](O)[C@@H](C)C3)nc2c1` [Example 28, 3-Amino-N-{4-[(3R,4R,5S)-3-amino-4-hydroxy-5-methylpiperidin-1-yl]-5-methylpyridin-3-yl}-7-ethylquinoline-2-carboxamide], the IC50 at Pim-3, on Pim2 and on Pim-1 was not above 100 nM throughout.
In the case of `CCc1ccc2cc(N)c(C(=O)Nc3cnccc3N3C[C@@H](N)[C@H](O)[C@@H](C)C3)nc2c1` [Example 29, 3-Amino-N-{4-[(3R,4R,5S)-3-amino-4-hydroxy-5-methylpiperidin-1-yl]pyridin-3-yl}-7-ethylquinoline-2-carboxamide], the IC50 on Pim-3, at Pim2 and on Pim-1 was not above 100 nM in each case.
`CCc1ccc2cc(N)c(C(=O)Nc3cncc(C)c3N3CCC[C@H](N)C3)nc2c1` [Example 30, 3-Amino-N-{4-[(3S)-3-aminopiperidin-1-yl]-5-methylpyridin-3-yl}-7-ethylquinoline-2-carboxamide]: the half-inhibitory concentration (IC50) on Pim-3, on Pim2 and on Pim-1 was not above 100 nM throughout.
`CCc1ccc2cc(N)c(C(=O)Nc3cnc(OC)cc3N3CCC[C@H](N)C3)nc2c1` [Example 31, 3-Amino-N-{4-[(3S)-3-aminopiperidin-1-yl]-6-methoxypyridin-3-yl}-7-ethylquinoline-2-carboxamide]: the figures for the IC50 on Pim-3, on Pim2 and at Pim-1 were not above 100 nM, more than 2000 nM and more than 40 nM, respectively.
Turning to `CCc1ccc2cc(N)c(C(=O)Nc3cncc(C#N)c3N3CCC[C@H](N)C3)nc2c1` [Example 32, 3-Amino-N-{4-[(3S)-3-aminopiperidin-1-yl]-5-cyanopyridin-3-yl}-7-ethylquinoline-2-carboxamide], the IC50 on Pim-3 is not above 100 nM; at Pim2, more than 2000 nM; on Pim-1, not above 100 nM.
Turning to `C[C@H]1CN(c2ccncc2NC(=O)c2nc3cc(N4CCOCC4)ccc3cc2N)C[C@@H](N)[C@@H]1O` [Example 33, 3-Amino-N-{4-[(3R,4R,5S)-3-amino-4-hydroxy-5-methylpiperidin-1-yl]pyridin-3-yl}-7-morpholin-4-ylquinoline-2-carboxamide], the IC50 on Pim-3 is not above 100 nM; on Pim2, 100 to 1000 nM; at Pim-1, not above 100 nM.
Take `C[C@@H]1C[C@H](N)CN(c2ccncc2NC(=O)c2nc3cc(N4CCOCC4)ccc3cc2N)C1` [Example 34, 3-Amino-N-{4-[(3S,5R)-3-amino-5-methylpiperidin-1-yl]pyridin-3-yl}-7-morpholin-4-ylquinoline-2-carboxamide]: the IC50 on Pim-3, at Pim2 and on Pim-1 was not above 100 nM each time.
Consider `Nc1cc2ccc(N3CCOCC3)cc2nc1C(=O)Nc1cnccc1N1C[C@@H](N)C[C@@H](C(F)(F)F)C1` [Example 35, 3-Amino-N-{4-[(3S,5R)-3-amino-5-(trifluoromethyl)piperidin-1-yl]pyridin-3-yl}-7-morpholin-4-ylquinoline-2-carboxamide], for which the values for the IC50 on Pim-3, at Pim2 and on Pim-1 were not above 100 nM, 100 to 1000 nM and not above 100 nM, respectively.
As for `C[C@@H]1C[C@H](N)CN(c2ccncc2NC(=O)c2nc3cc(N4CCN(C)CC4)ccc3cc2N)C1` [Example 36, 3-Amino-N-{4-[(3S,5R)-3-amino-5-methylpiperidin-1-yl]pyridin-3-yl}-7-(4-methylpiperazin-1-yl)quinoline-2-carboxamide], the IC50 at Pim-3, at Pim2 and on Pim-1 was not above 100 nM throughout.
Consider `CN1CCN(c2ccc3cc(N)c(C(=O)Nc4cnccc4N4C[C@@H](N)C[C@@H](C(F)(F)F)C4)nc3c2)CC1` [Example 37, 3-Amino-N-{4-[(3S,5R)-3-amino-5-(trifluoromethyl)piperidin-1-yl]pyridin-3-yl}-7-(4-methylpiperazin-1-yl)quinoline-2-carboxamide], for which the IC50 at Pim-3 is not above 100 nM; on Pim2, 100 to 1000 nM; at Pim-1, not above 100 nM.
For the molecule `C[C@H]1CN(c2ccncc2NC(=O)c2nc3cc(N4CCN(C)CC4)ccc3cc2N)C[C@@H](N)[C@@H]1O` [Example 38, 3-Amino-N-{4-[(3R,4R,5S)-3-amino-4-hydroxy-5-methylpiperidin-1-yl]pyridin-3-yl}-7-(4-methylpiperazin-1-yl)quinoline-2-carboxamide], the 50% inhibitory concentration (IC50) on Pim-3, on Pim2 and at Pim-1 was not above 100 nM each time.
Turning to `Nc1cc2ccc(C3CCOCC3)cc2nc1C(=O)Nc1cnccc1N1C[C@@H](N)C[C@@H](C(F)(F)F)C1` [Example 39, 3-Amino-N-{4-[(3S,5R)-3-amino-5-(trifluoromethyl)piperidin-1-yl]pyridin-3-yl}-7-(tetrahydro-2H-pyran-4-yl)quinoline-2-carboxamide], the IC50 on Pim-3, on Pim2 and on Pim-1 was not above 100 nM throughout.
For `C[C@@H]1C[C@H](N)CN(c2ccncc2NC(=O)c2nc3cc(C4CCOCC4)ccc3cc2N)C1` [Example 40, 3-Amino-N-{4-[(3S,5R)-3-amino-5-methylpiperidin-1-yl]pyridin-3-yl}-7-(tetrahydro-2H-pyran-4-yl)quinoline-2-carboxamide], the IC50 on Pim-3, on Pim2 and at Pim-1 was not above 100 nM each time.
Regarding `C[C@H]1CN(c2ccncc2NC(=O)c2nc3cc(C4CCOCC4)ccc3cc2N)C[C@@H](N)[C@@H]1O` [Example 41, 3-Amino-N-{4-[(3R,4R,5S)-3-amino-4-hydroxy-5-methylpiperidin-1-yl]pyridin-3-yl}-7-(tetrahydro-2H-pyran-4-yl)quinoline-2-carboxamide], the IC50 on Pim-3, on Pim2 and on Pim-1 was not above 100 nM each time.
With `C[C@H]1CN(c2ccncc2NC(=O)c2nc3cc(C4CCN(C)CC4)ccc3cc2N)C[C@@H](N)[C@@H]1O` [Example 42, 3-Amino-N-{4-[(3R,4R,5S)-3-amino-4-hydroxy-5-methylpiperidin-1-yl]pyridin-3-yl}-7-(1-methylpiperidin-4-yl)quinoline-2-carboxamide], the half-inhibitory concentration (IC50) at Pim-3, at Pim2 and at Pim-1 was not above 100 nM in each case.
